# Test results as given in ChEMBL document CHEMBL3751757, “Three-component, one-pot synthesis of benzo[6,7]cyclohepta[1,2-b]pyridine derivatives under catalyst free conditions and evaluation of their anti-inflammatory activity” (Bioorg Med Chem Lett, 2016).
# pIC50: −log10 of the molar value.
# Key:
# THP-1 [1] = assay: Anti-inflammatory activity in human THP1 cells assessed as inhibition of PMA-induced MCP-1 production after 48 hrs by ELISA; format: functional, cell-based; conditions: THP-1, 48 h
# [2] = Cytotoxicity against human THP1 cells assessed as cell viability at 20 uM after 48 hrs by trypan blue dye exclusion assay; format: functional; conditions: THP-1, 48 h, read-out: Activity
# THP-1 [3] = assay: Anti-inflammatory activity in human THP1 cells assessed as inhibition of PMA-induced IL-1beta production after 48 hrs by ELISA; format: functional, cell-based; conditions: THP-1, 48 h
Compound,pIC50 (THP-1 [1]),pIC50 (THP-1 [3]),viability at 20 µM [2]
CCOC(=O)c1cc2c(nc1-c1ccccc1)-c1cc(C)c(C)cc1CCC2,5.07,4.74,97.6%
CCOC(=O)c1cc2c(nc1C)-c1cc(C)c(C)cc1CCC2,5.07,5.19,95.9%
CCOC(=O)c1cc2c(nc1-c1ccccc1)-c1ccccc1CCC2,< 4.70,< 4.70,103%
Cc1cc2c(cc1C)-c1nc3c(cc1CCC2)C(=O)CC(C)(C)C3,< 4.70,< 4.70,105%
CN1C(C(=O)Nc2ccccn2)=C(O)c2ccccc2S1(=O)=O [PIROXICAM],,4.74,98.1%
O=C1CCCc2nc3c(cc21)CCCc1ccccc1-3,< 4.70,< 4.70,96.8%
Cc1cc2c(cc1C)-c1nc3c(cc1CCC2)C(=O)CCC3,< 4.70,< 4.70,97.1%
CC(=O)c1cc2c(nc1C)-c1ccccc1CCC2,< 4.70,< 4.70,92.3%

# Continued, in another order:
pIC50 (THP-1 [1]),pIC50 (THP-1 [3]),Compound,viability at 20 µM [2]
4.80,5.07,COC(=O)c1cc2c(nc1C)-c1cc(C)c(C)cc1CCC2,98.3%
5.25,< 4.70,CC1(C)CC(=O)c2cc3c(nc2C1)-c1ccccc1CCC3,98.2%
< 4.70,5.16,CCOC(=O)c1cc2c(nc1C)-c1ccccc1CCC2,99.2%
4.83,< 4.70,CC(=O)c1cc2c(nc1C)-c1cc(C)c(C)cc1CCC2,97.6%
< 4.70,5.09,COC(=O)c1cc2c(nc1C)-c1ccccc1CCC2,97.2%
< 4.70,4.76,O=C(c1ccccc1)c1cc2c(nc1-c1ccccc1)-c1ccccc1CCC2,99.4%
< 4.70,< 4.70,Cc1cc2c(cc1C)-c1nc(-c3ccccc3)c(C(=O)c3ccccc3)cc1CCC2,101%
